Measured values from patent US20220280543A1, “DDX17 AND NLRC4 TARGETING FOR INFLAMMATORY DISEASES” (University of Virginia Patent Foundation, priority 2019, published 2022).

How the values were obtained:
[1] = system: NLRC4 phosphorylation (site S533); assay: SINE RNA induced NLRC4 phosphorylation (S533) in BMDM, Western blot; assay type: cell-based, mouse; details: SINE RNAs each at 100 pmol, polyI:C 10 μg/ml (FIG. 1)
Procedure: FIG. 1. SINE RNA induced NLRC4 phosphorylation (site S533) in mice macrophage (BMDM). Mouse bone marrow derived macrophage (BMDM) were treated with SINE RNAs (Alu (SEQ ID NO: 86), B1 (SEQ ID NO: 87), and B2 (SEQ ID NO: 88), each at 100 pmol), and polyI:C (10 μg/ml). Phosphorylated Nlrc4 (p-Nlrc4) and total Nlrc4 (t-Nlrc4) were detected by Western blot. Actin is provided as a loading control. The p-NLRC4 bands were indicated by black arrow.
Previous studies have shown that NLRC4 inflammasome activation in response to Salmonella exposure requires two steps for its activation, phosphorylation on Ser533 residue of NLRC4 and NAIP mediated oligomerization of NLRC4. […] Moreover, treatment with SINE RNAs induced caspase-1 p20 cleavage, indicative of inflammasome activation (FIG. 2). For the subsequent experiments in this study, we used Alu RNA (SEQ ID NO: 86) as the stimulus to activate the NLRC4 inflammasome. To date, two kinases are reported to phosphorylate NLRC4 at S533: protein kinase C delta (PKCδ) and leucine rich repeat-containing kinase-2 (LRRK2). To explore the roles of these kinases in Alu RNA (SEQ ID NO: 86) induced NLRC4 phosphorylation, we pretreated BMDMs with pharmacological inhibitors of LRRK2 (GSK2578215A, GSK) and PKCδ (Rottlerin, Rot) respectively.

caspase-1 = assay: Alu RNA induced cleavage of caspase-1 precursor in BMDM; assay type: cell-based, mouse; details: Alu RNA transfection (FIG. 2)
Procedure: FIG. 2. SINE RNA induced NLRC4 phosphorylation (site S533) through protein Kinase C Delta. BMDM cell pre-treated with the LRRK2 Kinase inhibitor gsk2578215a (GSK; 5-(2-Fluoro-4-pyridinyl)-2-(phenylmethoxy)-N-3-pyridinyl-benzamide; CAS Number 1285515-21-0; Sigma-Aldrich, St. Louis, Mo., United States of America) or the PKC delta inhibitor Rottlerin (CAS Number 82-08-6; Sigma-Aldrich) at 2 μM or 5 μM, and treated with Alu RNA (SEQ ID NO: 86) transfection or transfection reagent alone (Mock). NLRC4 phosphorylation (P-NLRC4) and supernatant caspase-1 activation were detected by SDS-PAGE. […] PKC delta inhibitor, Rottlerin blocked Alu RNA-induced NLRC4 phosphorylation and caspase-1 activation. The p-NLRC4 and caspase-1 (p20) bands were indicated with black arrows.

NLRC4 [2] = assay: Alu RNA induced NLRC4 protein oligomerization in BMDM, Tris-glycine native PAGE; assay type: cell-based, mouse; details: Alu RNA 100 pmol, indicated time points (FIG. 4)
Procedure: FIG. 4. Alu RNA (SEQ ID NO: 86) induced NLRC4 protein oligomerization. Mouse BMDM was treated with Alu RNA (SEQ ID NO: 86; 100 pmol) at the indicated time points. NLRC4 oligomers were detected by Tris-glycine native PAGE. Loading control show by Actin. […] The bands of oligomeric NLRC4 protein were indicated by black arrow.
(§1) The activated NLRC4 inflammasome undergoes oligomerization by assembling into high-molecular mass multiprotein complexes. We first investigated in situ assembling of NLRC4 and apoptosis speck (ASC) like protein complexes in response to SINE RNA treatment of BMDMs. Immunofluorescence studies show increased NLRC4 and ASC specks in SINE RNA-treated BMDMs compared to mock-treated cells (FIG. 3A). To assess NLRC4 inflammasome assembly, WT and NLRC4 KO BMDM cells were treated with Alu RNA (SEQ ID NO: 86). Disuccinimidyl suberate (DSS) cross-linked lysates were resolved using denaturing SDS-PAGE to detect ASC oligomers and cell lysates were resolved using native polyacrylamide gel electrophoresis (NATIVE-PAGE) to detect NLRC4 oligomerization. […] NLRC4/ASC oligomerization is essential for the cleavage of pro-caspase-1 into its active form p20 and IL-1β release.

ASC specks = assay: SINE RNA induced ASC specks in BMDM, immunofluorescence; assay type: cell-based, mouse; details: BMDMs, transfection vs Mock (FIG. 3A)
Procedure: FIGS. 3A and 3B. SINE RNA-induced ASC oligomerization is dependent on NLRC4 (BMDM). FIG. 3A. Immunofluorescence images of endogenous ASC specks and NLRC4 puncta in BMDMs after transfected with Alu (SEQ ID NO: 86) or B2 (SEQ ID NO: 88) RNA or transfection reagents only (Mock). […] Moreover, NLRC4 proteins assembled as puncta, and co-resided with ASC specks. FIG. 3B. ASC oligomerizations were evaluated in wild-type and Nlrc4^−/− BMDMs through cross-linking and western blot. […] The bands of oligomeric ASC protein were indicated by black arrow.
as §1

NLRC4 [3] = assay: Alu RNA induced NLRC4 oligomers in human RPE cells, native PAGE; assay type: cell-based; details: Alu RNA transfection vs mock (FIG. 24B)
Text: FIGS. 24A and 24B. Alu RNA (SEQ ID NO: 86) induced NLRC4 activation in human RPE cells. To test whether Alu RNA (SEQ ID NO: 86) induces NLRC4 activation in human RPE, we transfected human RPE with Alu RNA (SEQ ID NO: 86 at 100 pmol). FIG. 24A. Immunofluorescence staining on NLRC4 show Alu RNA (SEQ ID NO: 86) induced cytosolic NLRC4 punctate in hRPE cells. The NLRC4 aggregates induced by Alu RNA (SEQ ID NO: 86) are indicated by white arrows. FIG. 24B. Alu RNA (SEQ ID NO: 86) induced NLRC4 (p-NLRC4) phosphorylation and oligomerization. Loading control show by Actin. NLRC4 oligomers were detected by Tris-glycine native PAGE. […] The band of NLRC4 oligomers is indicated by black arrow.
Next, we asked whether Alu RNA (SEQ ID NO: 86) also triggered NLRC4 inflammasome activation in human RPE cells. We performed immunofluorescence staining experiments to examine whether Alu RNA (SEQ ID NO: 86) can induce NLRC4 speck formation in human RPE cells. We noticed punctate structures resembling specks of NLRC4 in human RPE cells in response to Alu RNA (SEQ ID NO: 86) treatment (FIG. 24A). […] We further investigated downstream events of NLRC4 inflammasome activation by studying NLRC4-induced ASC oligomerization, a critical step involved in caspase-1 cleavage. NLRC4 siRNA, when co-administered with Alu RNA (SEQ ID NO: 86), blocked ASC oligomerization in vitro (FIG. 25A) and RPE degeneration in vivo (FIG. 25B).

Alu RNA: human SINE RNA, SEQ ID NO: 86
NLRC4 phosphorylation on S533 in BMDMs [1]: induced
cleavage of caspase-1 precursor (pro) to p20 (caspase-1): induced
formation of NLRC4 oligomers, BMDM (NLRC4 [2]): induces the formation of NLRC4 oligomers
formation of ASC specks (ASC specks): induced the formation of ASC specks
formation of NLRC4 oligomers, human RPE cells (NLRC4 [3]): induced the formation of NLRC4 oligomers
